Laboratory results as given in PMC8088928 (Cancer Science, 2021).

Columns and labels:
HER2 kinase = HER2 kinase (Homo sapiens, UniProt P04626); experiment: Enzyme activity assay of HER2; type: biochemical
[1] = molecular target: Recombinant Human Her2/ErbB2 Protein (Homo sapiens, UniProt P04626); experiment: Microscale thermophoresis; type: binding
MKN‐45 cells = experiment: CCK‐8 cytotoxicity / proliferation assay; type: cell-based, human; settings: for IC50: Homo sapiens, MKN-45, 72 h, read-out: IC50 (cytotoxic activity); for Effect on proliferation of tumor cells (in words): MKN‐45 cells, 72 h, CCK‐8
Human PD‐L1 Fc Protein = Human PD‐L1 Fc Protein (Homo sapiens, UniProt Q9NZQ7); experiment: Microscale thermophoresis; type: binding
Sequence of Human PD‐L1 Fc Protein (Q9NZQ7 19-238 limits assumed): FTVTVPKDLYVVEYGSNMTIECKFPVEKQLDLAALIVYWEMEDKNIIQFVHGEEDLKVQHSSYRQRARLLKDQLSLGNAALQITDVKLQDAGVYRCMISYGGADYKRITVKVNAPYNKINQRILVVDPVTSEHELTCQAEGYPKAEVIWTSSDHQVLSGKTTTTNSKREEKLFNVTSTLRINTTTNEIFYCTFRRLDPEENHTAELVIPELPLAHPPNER

Sequence of Recombinant Human Her2/ErbB2 Protein (P04626 23-1255): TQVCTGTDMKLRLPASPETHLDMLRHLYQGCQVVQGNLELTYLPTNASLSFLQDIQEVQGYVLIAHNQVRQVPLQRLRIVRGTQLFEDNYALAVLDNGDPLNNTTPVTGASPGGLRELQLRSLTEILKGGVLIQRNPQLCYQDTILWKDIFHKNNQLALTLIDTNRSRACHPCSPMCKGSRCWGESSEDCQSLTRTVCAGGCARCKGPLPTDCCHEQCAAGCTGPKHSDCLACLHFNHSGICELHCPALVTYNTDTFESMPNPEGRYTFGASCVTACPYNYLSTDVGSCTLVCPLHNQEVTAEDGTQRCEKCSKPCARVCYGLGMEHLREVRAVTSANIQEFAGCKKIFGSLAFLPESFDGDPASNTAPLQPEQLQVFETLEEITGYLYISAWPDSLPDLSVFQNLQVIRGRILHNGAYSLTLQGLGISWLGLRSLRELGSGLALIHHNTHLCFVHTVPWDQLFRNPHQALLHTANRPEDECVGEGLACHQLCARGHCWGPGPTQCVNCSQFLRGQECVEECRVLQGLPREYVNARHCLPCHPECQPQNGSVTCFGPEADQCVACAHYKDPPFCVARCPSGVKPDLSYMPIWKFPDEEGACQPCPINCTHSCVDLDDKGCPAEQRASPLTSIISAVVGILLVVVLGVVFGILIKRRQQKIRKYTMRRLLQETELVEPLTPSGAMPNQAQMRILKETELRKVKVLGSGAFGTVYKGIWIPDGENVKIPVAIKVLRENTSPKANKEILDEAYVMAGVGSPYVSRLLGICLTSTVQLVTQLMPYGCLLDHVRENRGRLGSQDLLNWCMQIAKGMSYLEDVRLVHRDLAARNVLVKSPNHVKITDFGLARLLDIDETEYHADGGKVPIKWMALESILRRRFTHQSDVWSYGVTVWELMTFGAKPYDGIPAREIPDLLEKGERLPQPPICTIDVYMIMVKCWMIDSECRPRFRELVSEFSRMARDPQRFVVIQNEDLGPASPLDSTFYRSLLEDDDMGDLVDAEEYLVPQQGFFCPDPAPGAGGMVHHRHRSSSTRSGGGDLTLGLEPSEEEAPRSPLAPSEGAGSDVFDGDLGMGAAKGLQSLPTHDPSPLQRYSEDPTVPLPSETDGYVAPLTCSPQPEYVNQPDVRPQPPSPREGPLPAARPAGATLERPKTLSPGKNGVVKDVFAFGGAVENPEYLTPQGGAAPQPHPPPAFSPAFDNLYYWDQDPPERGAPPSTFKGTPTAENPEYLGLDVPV
Sequence of HER2 kinase (P04626 23-1255): as above

SMILES | IC50 (HER2 kinase) [nM] | Kd [1] [nM] | IC50 (MKN‐45 cells) [µM] | Effect on proliferation of tumor cells (in words) (MKN‐45 cells) | Kd (Human PD‐L1 Fc Protein) [nM]
O=c1c(O)c(-c2ccc(O)c(O)c2)oc2cc(O)cc(O)c12 [Quercetin] | 570 | 490 | 19.3 | potential antiproliferative effects | 
COc1ccc(-c2coc3cc(O)ccc3c2=O)cc1 [Formononetin] |  |  |  | could not inhibit proliferation of tumor cells | 355
COc1cc(-c2oc3cc(O)cc(O)c3c(=O)c2O)ccc1O [Isorhamnetin] |  |  | 10.8 | potential antiproliferative effects | 667
O=c1c(-c2ccc(O)cc2)coc2cc(O)ccc12 [Daidzein] |  | 3700 | 21.5 | potential antiproliferative effects | 
